These results are taken from ChEMBL document CHEMBL1201862, “PubChem BioAssay data set” (2004).

Molecules are shown by their SMILES. Calls of active or inactive are those of the source. Bounds are passed on as bounds.

In test [1] the target is ATP-dependent molecular chaperone HSP82 (Candida albicans (strain WO-1) (Yeast), UniProt C4YTQ8). Put plainly: loss of DOC-induced GRE-beta-galactosidase reporter signal, dose response, Hsp90 inhibitor project, S. cerevisiae, luminescence (AID 2400).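 Note: beta-galactosidase luminescence from glucocorticoid response element reporter as proxy for Hsp90 function; inhibitor potency where signal loss means Hsp90 inhibition.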 It is filed as functional, cell-based.
A short description of test [2]: C. albicans growth with fluconazole, confirmation, fluorescence, retest (AID 2467). The test is classed as functional, cell-based.
Test [3] can be described thus: cytotoxicity toward DRD oncogenic fibroblasts, dose response, cell-based, non-viral oncogenic, luminescence (AID 1934). It is filed as functional. Particulars: Homo sapiens.
Test [4] deals with H9c2. The test can be described thus: cells. The test is classed as functional, cell-based. The following applies: Rattus norvegicus, H9c2, Myocardium.
The target in test [5] is Fibroblast growth factor receptor 1 (Homo sapiens, UniProt P11362). The test is classed as functional.
The target of test [6] is Dual specificity protein kinase CLK2 (Homo sapiens, UniProt P49760). The test is classed as functional.
For test [7], the target named is Insulin-like growth factor 1 receptor (Homo sapiens, UniProt P08069). The test can be described thus: Navigating the Kinome. Panel member name: IGF1R. The test is classed as functional.
The target of test [8] is Serine/threonine-protein kinase PLK1 (Homo sapiens, UniProt P53350). The test is classed as functional.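 Note: PLK1 measured as one member of a kinome-wide profiling panel.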
Test [9] addresses Maternal embryonic leucine zipper kinase (Homo sapiens, UniProt Q14680). The test is classed as functional.
In test [10] the target is Calcium/calmodulin-dependent protein kinase type II subunit beta (Homo sapiens, UniProt Q13554). The test is classed as functional.
Test [11] addresses Serine/threonine-protein kinase Nek4 (Homo sapiens, UniProt P51957). It is filed as functional.
The target in test [12] is Protein kinase C gamma type (Homo sapiens, UniProt P05129). The test is classed as functional.
For test [13], the target named is Mitogen-activated protein kinase 12 (Homo sapiens, UniProt P53778). It is filed as functional.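 Note: measured as one member of a kinome-wide kinase profiling panel.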
Test [14] concerns the target SRSF protein kinase 1 (Homo sapiens, UniProt Q96SB4). It is filed as functional.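 Note: measured as one member of a kinome-wide kinase profiling panel.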
Test [15] has as its target BDNF/NT-3 growth factors receptor (Homo sapiens, UniProt Q16620). The test is classed as functional.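 Note: NTRK2 measured as one member of a broad kinome-wide kinase profiling panel.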
Test [16] has as its target cAMP-dependent protein kinase catalytic subunit PRKX (Homo sapiens, UniProt P51817). It is filed as functional.
Test [17] deals with Non-receptor tyrosine-protein kinase TYK2 (Homo sapiens, UniProt P29597). The test is classed as functional.
In test [18] the target is Cyclin-dependent kinase 5 (Homo sapiens, UniProt Q00535). The test is classed as functional.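 Note: CDK5 measured as one member of a kinase profiling panel.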
Sequence of Cyclin-dependent kinase 5 (Q00535 whole entry): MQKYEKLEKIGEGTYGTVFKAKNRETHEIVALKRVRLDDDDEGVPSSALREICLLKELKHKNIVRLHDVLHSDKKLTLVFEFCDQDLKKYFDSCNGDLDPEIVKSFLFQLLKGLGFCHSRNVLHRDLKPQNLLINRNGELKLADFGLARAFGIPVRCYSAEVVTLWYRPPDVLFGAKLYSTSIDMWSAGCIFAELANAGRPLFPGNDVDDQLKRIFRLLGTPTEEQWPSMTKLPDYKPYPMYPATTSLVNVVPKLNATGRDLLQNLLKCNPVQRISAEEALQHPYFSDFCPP
Test [19] addresses 3-phosphoinositide-dependent protein kinase 1 (Homo sapiens, UniProt O15530). It is filed as functional.
Test [20] concerns the target Tyrosine-protein kinase BTK (Homo sapiens, UniProt Q06187). The test is classed as functional.
Test [21] addresses Receptor tyrosine-protein kinase erbB-4 (Homo sapiens, UniProt Q15303). The test is classed as functional.
The target in test [22] is Macrophage colony-stimulating factor 1 receptor (Homo sapiens, UniProt P07333). The test is classed as functional.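 Note: value comes from the Navigating the Kinome screening panel, CSF1R member.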
Test [23] concerns the target Serine/threonine-protein kinase TAO1 (Homo sapiens, UniProt Q7L7X3). It is filed as functional.
Test [24] addresses Lymphokine-activated killer T-cell-originated protein kinase (Homo sapiens, UniProt Q96KB5). The test is classed as functional.
The target of test [25] is Epidermal growth factor receptor (Homo sapiens, UniProt P00533).
Sequence of Epidermal growth factor receptor (P00533 whole entry): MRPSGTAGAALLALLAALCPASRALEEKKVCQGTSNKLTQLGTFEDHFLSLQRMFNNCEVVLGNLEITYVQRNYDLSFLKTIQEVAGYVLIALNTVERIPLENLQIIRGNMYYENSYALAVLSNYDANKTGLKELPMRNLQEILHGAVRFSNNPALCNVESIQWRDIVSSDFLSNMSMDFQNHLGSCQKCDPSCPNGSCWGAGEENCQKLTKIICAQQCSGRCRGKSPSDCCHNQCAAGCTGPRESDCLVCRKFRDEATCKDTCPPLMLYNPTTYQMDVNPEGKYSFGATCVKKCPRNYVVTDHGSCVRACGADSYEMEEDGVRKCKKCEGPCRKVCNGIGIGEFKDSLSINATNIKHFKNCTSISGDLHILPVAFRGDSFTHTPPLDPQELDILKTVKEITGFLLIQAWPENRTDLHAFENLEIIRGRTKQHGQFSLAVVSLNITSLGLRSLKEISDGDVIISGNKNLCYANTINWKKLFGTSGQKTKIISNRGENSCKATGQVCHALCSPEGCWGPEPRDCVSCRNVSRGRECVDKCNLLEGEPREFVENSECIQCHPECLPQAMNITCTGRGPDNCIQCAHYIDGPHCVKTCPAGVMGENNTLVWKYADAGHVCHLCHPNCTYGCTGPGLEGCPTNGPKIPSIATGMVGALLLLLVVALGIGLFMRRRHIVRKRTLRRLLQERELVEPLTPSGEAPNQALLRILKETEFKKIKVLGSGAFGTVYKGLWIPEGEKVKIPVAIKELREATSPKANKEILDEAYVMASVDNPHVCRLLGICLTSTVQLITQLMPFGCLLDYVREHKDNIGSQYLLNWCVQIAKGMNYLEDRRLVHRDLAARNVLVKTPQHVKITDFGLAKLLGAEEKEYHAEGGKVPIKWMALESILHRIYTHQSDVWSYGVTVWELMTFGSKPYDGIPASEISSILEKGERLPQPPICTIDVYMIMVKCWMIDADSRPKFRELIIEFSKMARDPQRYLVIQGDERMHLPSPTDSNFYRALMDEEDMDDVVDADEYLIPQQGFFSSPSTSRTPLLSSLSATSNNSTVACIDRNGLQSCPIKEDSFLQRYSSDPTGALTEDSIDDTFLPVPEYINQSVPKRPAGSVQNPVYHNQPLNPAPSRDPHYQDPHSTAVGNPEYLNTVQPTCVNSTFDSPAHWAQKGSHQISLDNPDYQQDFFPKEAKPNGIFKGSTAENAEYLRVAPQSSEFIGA
Test [26] deals with 5'-AMP-activated protein kinase catalytic subunit alpha-1 (Homo sapiens, UniProt Q13131). It is filed as functional.
Sequence of 5'-AMP-activated protein kinase catalytic subunit alpha-1 (Q13131 whole entry): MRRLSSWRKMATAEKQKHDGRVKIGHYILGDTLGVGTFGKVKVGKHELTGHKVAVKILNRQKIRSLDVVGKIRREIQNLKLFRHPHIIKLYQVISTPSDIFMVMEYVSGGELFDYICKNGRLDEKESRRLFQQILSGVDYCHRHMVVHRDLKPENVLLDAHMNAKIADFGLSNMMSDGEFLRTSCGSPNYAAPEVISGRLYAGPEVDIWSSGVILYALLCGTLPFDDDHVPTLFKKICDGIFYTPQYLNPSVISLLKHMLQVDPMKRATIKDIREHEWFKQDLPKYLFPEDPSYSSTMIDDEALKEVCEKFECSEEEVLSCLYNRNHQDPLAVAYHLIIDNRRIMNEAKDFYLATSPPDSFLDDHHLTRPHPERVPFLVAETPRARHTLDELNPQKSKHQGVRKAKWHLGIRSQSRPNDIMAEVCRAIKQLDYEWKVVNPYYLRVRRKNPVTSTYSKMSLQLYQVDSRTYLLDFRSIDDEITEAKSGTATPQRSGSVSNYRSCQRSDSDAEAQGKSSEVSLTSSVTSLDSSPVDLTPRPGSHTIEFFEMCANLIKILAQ
Test [27] has as its target Glycogen synthase kinase-3 beta (Homo sapiens, UniProt P49841). The test is classed as functional.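 Note: value comes from a broad kinome profiling panel, with GSK3B as the panel member.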
The target of test [28] is High affinity nerve growth factor receptor (Homo sapiens, UniProt P04629). It is filed as functional.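 Note: NTRK1 tested as one member of a kinome-wide profiling panel.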
In test [29] the target is Tyrosine-protein kinase ABL1 (Homo sapiens, UniProt P00519). It is filed as functional.
The target in test [30] is MAP kinase-activated protein kinase 5 (Homo sapiens, UniProt Q8IW41). It is filed as functional.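 Note: measured as one member of a kinome panel.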
The target in test [31] is Tyrosine-protein kinase JAK2 (Homo sapiens, UniProt O60674). It is filed as functional.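 Note: JAK2 tested as one member of a kinase panel.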
For test [32], the target named is Hepatocyte growth factor receptor (Homo sapiens, UniProt P08581). The test is classed as functional.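 Note: kinase panel profiling across the kinome, with MET as the panel member.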
In test [33] the target is Insulin receptor (Homo sapiens, UniProt P06213). It is filed as functional.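 Note: insulin receptor kinase tested as one member of a kinome-wide kinase panel.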
The target in test [34] is Mitogen-activated protein kinase 8 (Homo sapiens, UniProt P45983). The test is classed as functional.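 Note: value comes from one member of a kinome-wide kinase profiling panel.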
The target of test [35] is Tyrosine-protein kinase Blk (Homo sapiens, UniProt P51451). The test is classed as functional.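 Note: obtained as one member of a kinome-wide kinase assay panel.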
Test [36] has as its target Fibroblast growth factor receptor 3 (Homo sapiens, UniProt P22607). The test is classed as functional.
The target of test [37] is Testis-specific serine/threonine-protein kinase 2 (Homo sapiens, UniProt Q96PF2). It is filed as functional.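 Note: part of the Navigating the Kinome panel, target entry STK22B.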
The target of test [38] is Mitogen-activated protein kinase 9 (Homo sapiens, UniProt P45984). It is filed as functional.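 Note: value from a kinome panel profiling assay, MAPK9 panel entry.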
For test [39], the target named is Tyrosine-protein kinase SYK (Homo sapiens, UniProt P43405). The test is classed as functional.
For test [40], the target named is Serine/threonine-protein kinase pim-1 (Homo sapiens, UniProt P11309). It is filed as functional.
Sequence of Serine/threonine-protein kinase pim-1 (P11309 whole entry): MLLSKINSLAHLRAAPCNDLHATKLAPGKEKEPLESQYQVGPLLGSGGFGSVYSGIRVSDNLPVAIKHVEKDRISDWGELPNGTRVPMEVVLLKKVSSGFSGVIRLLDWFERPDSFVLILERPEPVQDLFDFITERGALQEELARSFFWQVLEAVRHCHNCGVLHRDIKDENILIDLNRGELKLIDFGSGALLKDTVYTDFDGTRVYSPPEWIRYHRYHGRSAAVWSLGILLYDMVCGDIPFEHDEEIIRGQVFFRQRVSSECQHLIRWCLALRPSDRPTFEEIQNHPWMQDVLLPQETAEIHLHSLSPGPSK
The target in test [41] is Calcium/calmodulin-dependent protein kinase type 1 (Homo sapiens, UniProt Q14012). The test is classed as functional.
For test [42], the target named is Ribosomal protein S6 kinase beta-1 (Homo sapiens, UniProt P23443). It is filed as functional.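 Note: measured as one member of a kinome-wide profiling panel.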
Sequence of Ribosomal protein S6 kinase beta-1 (P23443 whole entry): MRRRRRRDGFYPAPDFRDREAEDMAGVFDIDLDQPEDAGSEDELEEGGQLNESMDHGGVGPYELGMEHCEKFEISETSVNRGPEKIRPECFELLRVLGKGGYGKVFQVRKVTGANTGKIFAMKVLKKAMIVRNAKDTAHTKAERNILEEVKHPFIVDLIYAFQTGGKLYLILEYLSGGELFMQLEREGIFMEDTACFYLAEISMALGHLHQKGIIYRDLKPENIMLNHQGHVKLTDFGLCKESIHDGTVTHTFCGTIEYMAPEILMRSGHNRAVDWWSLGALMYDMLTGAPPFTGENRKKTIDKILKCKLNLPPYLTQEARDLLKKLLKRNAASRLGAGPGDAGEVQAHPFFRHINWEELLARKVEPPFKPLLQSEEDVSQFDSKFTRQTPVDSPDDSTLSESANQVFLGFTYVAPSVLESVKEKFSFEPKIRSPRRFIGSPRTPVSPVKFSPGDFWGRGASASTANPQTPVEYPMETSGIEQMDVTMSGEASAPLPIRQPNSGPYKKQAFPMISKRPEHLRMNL
Test [43] addresses Serine/threonine-protein kinase DCLK1 (Homo sapiens, UniProt O15075). The test is classed as functional.
The target in test [44] is Cell division cycle 7-related protein kinase (Homo sapiens, UniProt O00311). The test is classed as functional.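 Note: value obtained from a kinome-wide kinase panel.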
Test [45] deals with Proto-oncogene tyrosine-protein kinase ROS (Homo sapiens, UniProt P08922). It is filed as functional.
Test [46] deals with Ribosomal protein S6 kinase alpha-5 (Homo sapiens, UniProt O75582). It is filed as functional.
Sequence of Ribosomal protein S6 kinase alpha-5 (O75582 whole entry): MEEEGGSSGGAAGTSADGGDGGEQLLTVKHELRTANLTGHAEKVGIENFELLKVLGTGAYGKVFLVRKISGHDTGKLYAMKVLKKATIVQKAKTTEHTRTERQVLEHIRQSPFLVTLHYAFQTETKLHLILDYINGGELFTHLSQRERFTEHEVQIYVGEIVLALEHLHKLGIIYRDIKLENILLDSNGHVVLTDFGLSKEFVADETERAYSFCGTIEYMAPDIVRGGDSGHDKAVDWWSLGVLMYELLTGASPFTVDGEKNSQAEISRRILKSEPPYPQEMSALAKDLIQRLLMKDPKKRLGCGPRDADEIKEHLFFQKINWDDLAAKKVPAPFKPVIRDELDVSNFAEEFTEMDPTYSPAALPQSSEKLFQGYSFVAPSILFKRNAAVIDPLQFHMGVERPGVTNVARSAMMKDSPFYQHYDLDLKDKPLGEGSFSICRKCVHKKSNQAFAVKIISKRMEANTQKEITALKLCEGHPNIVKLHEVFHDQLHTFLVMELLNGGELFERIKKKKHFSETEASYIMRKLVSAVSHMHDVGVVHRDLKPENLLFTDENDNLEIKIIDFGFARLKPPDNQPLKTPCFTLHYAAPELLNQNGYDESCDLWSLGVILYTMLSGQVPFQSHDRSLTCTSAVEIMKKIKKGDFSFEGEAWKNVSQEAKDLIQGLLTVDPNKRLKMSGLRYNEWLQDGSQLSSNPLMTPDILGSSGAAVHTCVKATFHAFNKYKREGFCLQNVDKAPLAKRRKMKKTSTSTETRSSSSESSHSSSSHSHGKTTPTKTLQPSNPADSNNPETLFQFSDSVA
Test [47] addresses RAC-gamma serine/threonine-protein kinase (Homo sapiens, UniProt Q9Y243). It is filed as functional.
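Throughout, for IC50: confirmatory concentration-response retest of ultra-high-throughput screening hits for modulation of myocardial damage; cell death induced by hydrogen peroxide oxidative stress; compound pretreatment for 60 min then peroxide exposure for 2 h; potency is for protecting the cells against peroxide damage rather than for killing them.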

Sequence of Serine/threonine-protein kinase Nek4 (P51957 whole entry): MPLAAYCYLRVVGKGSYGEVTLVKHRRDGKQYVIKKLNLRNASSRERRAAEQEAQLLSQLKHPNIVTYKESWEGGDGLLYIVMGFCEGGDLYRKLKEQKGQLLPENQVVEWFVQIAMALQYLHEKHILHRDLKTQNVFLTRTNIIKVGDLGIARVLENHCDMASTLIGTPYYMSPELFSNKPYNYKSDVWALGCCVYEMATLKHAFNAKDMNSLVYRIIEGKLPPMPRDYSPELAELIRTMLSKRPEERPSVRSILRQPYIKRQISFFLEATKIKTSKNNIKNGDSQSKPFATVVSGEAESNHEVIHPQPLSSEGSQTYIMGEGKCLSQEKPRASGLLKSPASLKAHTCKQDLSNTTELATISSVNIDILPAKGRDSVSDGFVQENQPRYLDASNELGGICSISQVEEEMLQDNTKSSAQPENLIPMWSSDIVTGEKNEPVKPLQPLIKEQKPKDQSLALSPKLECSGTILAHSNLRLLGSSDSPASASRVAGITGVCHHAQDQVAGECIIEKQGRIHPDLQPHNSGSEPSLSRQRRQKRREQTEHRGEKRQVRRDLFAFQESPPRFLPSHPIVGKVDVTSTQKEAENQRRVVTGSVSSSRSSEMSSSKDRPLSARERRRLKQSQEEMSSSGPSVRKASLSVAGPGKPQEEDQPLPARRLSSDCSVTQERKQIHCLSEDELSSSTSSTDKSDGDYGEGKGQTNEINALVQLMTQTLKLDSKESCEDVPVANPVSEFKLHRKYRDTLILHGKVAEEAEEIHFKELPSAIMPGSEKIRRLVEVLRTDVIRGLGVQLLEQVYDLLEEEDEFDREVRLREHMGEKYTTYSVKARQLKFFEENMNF
Sequence of Lymphokine-activated killer T-cell-originated protein kinase (Q96KB5 whole entry): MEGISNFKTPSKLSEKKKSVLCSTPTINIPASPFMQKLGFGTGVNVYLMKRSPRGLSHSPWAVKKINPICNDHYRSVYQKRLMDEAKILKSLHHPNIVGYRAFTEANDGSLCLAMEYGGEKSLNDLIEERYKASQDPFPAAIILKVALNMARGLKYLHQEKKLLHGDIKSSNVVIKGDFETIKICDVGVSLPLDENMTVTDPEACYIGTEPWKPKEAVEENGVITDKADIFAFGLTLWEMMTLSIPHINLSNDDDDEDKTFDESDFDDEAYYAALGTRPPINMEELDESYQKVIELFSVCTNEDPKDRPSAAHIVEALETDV

In general, EC50 refers to the concentration at which the effect is half-maximal. Usually IC50 stands for the concentration at which inhibition is half-maximal. Take `COc1ccc(-c2nnc(NC(=O)c3ccc(F)cc3)o2)cc1`: the EC50 was > 150000 nM (inactive) in test [1], 305 nM (active) in test [2] and 38100 nM (active) in [3]. Moreover, in [4], the IC50 was > 79000 nM (inactive).

As a reminder, the Ki is the equilibrium dissociation constant of an inhibitor or competing ligand from its target. With `CCn1c(-c2nonc2N)nc2cnc(Oc3cccc(NC(=O)c4ccc(OCCN5CCOCC5)cc4)c3)cc21` [GSK-269962A], the Ki in test [5] is > 5010 nM (inactive); in [6], > 7940 nM (inactive); in test [7] it was > 2000 nM (inactive); in test [8] it was > 7940 nM (inactive); in test [9], > 1580 nM (inactive); in test [10], 7940 nM (active). Moreover, the Ki in test [11] was > 6310 nM (inactive); in test [12], 251 nM (active); in test [13], > 6310 nM (inactive); in test [14], 7940 nM (active); in [15] it was > 5010 nM (inactive); in [16], 50.1 nM (active). In addition, the Ki in test [17] was > 2000 nM (inactive); in test [18], > 10000 nM (inactive); in [19] it was > 3980 nM (inactive); in test [20], > 1260 nM (inactive); in test [21], > 3980 nM (inactive); in [22] it was > 2510 nM (inactive). For the same compound, the Ki in test [23] was > 10000 nM (inactive); in test [24], > 10000 nM (inactive); in test [25] it was > 2000 nM (inactive); in test [26] it was > 1580 nM (inactive); in test [27] it was 63.1 nM (active); in test [28] it was > 2510 nM (inactive). The Ki in test [29] was > 631 nM (inactive); in [30] it was > 1580 nM (inactive); in test [31], > 1580 nM (inactive); in test [32] it was > 3160 nM (inactive); in [33], > 5010 nM (inactive); in [34] it was > 3160 nM (inactive). Moreover, the Ki in test [35] is > 1580 nM (inactive); in [36], > 2000 nM (inactive); in test [37] it was > 1580 nM (inactive); in [38] it was > 3980 nM (inactive); in test [39], > 1580 nM (inactive); in test [40], 316 nM (active). In addition, the Ki was > 5010 nM (inactive) in test [41]; 3.16 nM (active) in test [42]; > 10000 nM (inactive) in [43]; 79.4 nM (active) in test [44]; > 2000 nM (inactive) in test [45]; 63.1 nM (active) in test [46]. For the same compound, the Ki in [47] was 2000 nM (active).
